Data: patent US20240109855A1, “ANTI-QUORUM SENSING, ANTI-BIOFILM, AND INFLAMMATION ATTENUATING COMPOUNDS, COMPOSITIONS, AND METHODS OF USING SAME” (priority 2021, published 2024)
Entries after “also recorded” stand apart in the source; their conditions may differ. Like-named read-outs stand apart in the source and are kept apart here.

What was measured:
[1] = in vitro
Experimental: (§1) The human Hodgkin's Lymphoma derived L428 cell line was used as a model. The cells were grown in RPMI Medium 1640 with 10% FBS, 1% Glutamine and pen-strep (all from Biological Industries, Israel). […] Thirty thousand (30,000) cells/well were placed in 96-well plates with the coumaperine derivatives at different concentrations or with vehicle (DMSO) at a final volume of 200 μl. The plates were incubated for 48 hrs. at 37° C. and 5% CO2 followed by the addition of 50 μl of the XTT reagent tetrazolium-formazan, (Biological Industries, Israel) was added for 2 hrs. at 37° C., 5% CO2. In living cells, mitochondria […] the tetrazolium-formazan salt, thereby generating a color absorbing product at 450 nm. Absorbance was measured at 450 nm and 650 nm in an enzyme-linked immunosorbent assay (ELISA) plate reader (Multiskan Spectrum, Version 1.2), and recorded. Absorption values at 650 nm were subtracted from the blank and the 450 nm values. The results were normalized to the control (treated with DMSO).
(§2) Viability was determined in triplicate in two independent tests. The results were normalized to vehicle (DMSO) treated cells, (100% viability). Mean+SD.

[2] = system: Agrobacterium tumefaciens (KYC55); experiment: Quorum sensing inhibition test with bio-reporter KYC55 (TLC overlay); assay type: cell-based; conditions: for Degree of QSI of KYC55: Table 1, coumaperine derivatives, 40 mM in ~20 μL acetonitrile dried on TLC plate, overnight, color intensity; for QSI activity against KYC55, in words: running text; for Degree of QSI of KYC55: key: −: no inhibition; +: low inhibition; ++: medium inhibition; +++: strong inhibition; for Degree of quorum sensing inhibition (QSI), KYC55: key: −: no inhibition; +: low inhibition; ++: medium inhibition; +++: strong inhibition
Experimental: (§3) TLC preparation: all derivatives were dissolved in 100% acetonitrile to a concentration of 40 mM. Then placed 20 μlon the same spot on the TLC and let the solvent evaporate before use. CV026: few colonies were transferred to liquid LB (Lenox) for overnight incubation at 30° C. in a 45 degree in orbital shaker. At the O.D. 0.8 3 ml of the starter was added to preheated soft LB agar containing 500 nM of 3-oxo-C6 (Sigma-Aldrich). The mixture was then loaded on the TLC in a glass plate for O.N. incubation in 30° C. The next day inhibition zone was measured, while QS is taking place bacteria produce purple pigment, and when QS is inhibited no pigment is produced. KYC55 (pJZ372) (pJZ384) (pJZ410): 20 μl from the frozen stock into 25 ml AT media (AT buffer×20: 1.57 M KH2PO4 pH=7.3. AT salts mix×20: 300 mM (NH4)2SO4, 13 mM MgSO4, 1.4 mM CaCl2, 0.4 mM FeSO4·7H2O, 0.26 mM MnSO4·H2O. AT media: 50 ml×20 AT-buffer, 50 ml×20 AT-salts, 10 ml 50% (w/v) glucose, add 890 ml to final volume of 1 liter.) For O.N. at 30° C. in an orbital shaker. Into preheated water agar with 25 ml AT-buffer, and 60 μg/ml X-gal and 5 nM 3-oxo-c8 (both from Sigma-Aldrich) 25 ml of the starter was added. Then, that mixture was loaded on the TLC in glass plate for O.N. incubation in 30° C. The next day the inhibition zone was measured. The bacteria produce blue pigment during QS and when QS is inhibited no pigment is produced. KYC55 (pJZ372) (pJZ384) (pJZ410) preservation in tetracycline (1 μg/ml), spectinomycin (100 μg/ml), gentamicin (100 μg/ml) (all antibiotics from Sigma Aldrich) in AT media O.N. then centrifuged and suspend in 15% glycerol frozen and maintained at −80° C.

[3] = system: Bacillus subtilis; experiment: Diffusion discs test, Bacillus subtilis; assay type: cell-based; design: key: —: no activity; conditions: discs with 40 mM of compound in 20 μl solvent
Experimental: (§4) All derivatives were dissolved in acetonitrile to a final concentration of 40 mM. Twenty (20) μl were loaded onto Whatman filter paper discs and dried. Bacillus subtilis, Staphylococcus aureus, and Acinetobacter baumannii were grown in LB (Lenox) O.N. One hundred (100) μl from the starter culture was plated on LB agar (Miller) dishes. Streptococcus sobrinus, and Streptococcus mutans grown in Brain Heary Infusion (BHI, Himedia) O.N. were similarly plated on BHI agar dishes. Discs were laid and incubated O.N. in 37° C. and the diameter of inhibition of bacterial growth was measured.

[4] = system: Streptococcus mutans; experiment: Diffusion discs test, Streptococcus mutans; assay type: cell-based; design: key: —: no activity; conditions: discs with 40 mM of compound in 20 μl solvent
Experimental: as §4

[5] = system: PA01; experiment: Diffusion discs test, PA01; assay type: cell-based, P. aeruginosa; design: key: —: no activity; conditions: discs with 40 mM of compound in 20 μl solvent
[6] = system: gram-positive and gram-negative bacteria; experiment: Antibacterial activity, overall statement (diffusion discs test); assay type: cell-based; conditions: for Antibacterial activity, in words: running text; for Antibacterial: Table 6 summary
Experimental: as §4
The antibacterial activities of derivatives showing QSI are outlined in Table 4. […] Similar to that idea, synthetic derivatives of furanon (product of marine algae) shown in-vivo QSI activity without antibacterial activity followed by immune response of the infected animal. Phenolic compounds decrease QS and virulence in PA01 and Chromobacterium violaceum. There is increasing number of studies, searching for compounds that targeting non-vital processes to combat bacteria.

[7] = system: Staphylococcus aureus; experiment: Diffusion discs test, Staphylococcus aureus; assay type: cell-based; design: key to Staphylococcus aureus, diameter of growth inhibition: —: no activity; conditions: for Staphylococcus aureus, diameter of growth inhibition: discs with 40 mM of compound in 20 μl solvent
Experimental: as §4

[8] = system: Acinetobacter baumannii; experiment: Diffusion discs test, Acinetobacter baumannii; assay type: cell-based; design: key: —: no activity; conditions: discs with 40 mM of compound in 20 μl solvent
Experimental: as §4

[9] = system: Chromobacterium violaceum (CV026); experiment: Quorum sensing inhibition test with bio-reporter CV026 (TLC overlay); assay type: cell-based; conditions: for Degree of QSI of CV026: Table 1, coumaperine derivatives, 40 mM in ~20 μL acetonitrile dried on TLC plate, overnight, color intensity; for QSI activity against CV026, in words: running text; for Degree of QSI of CV026: key: −: no inhibition; +: low inhibition; ++: medium inhibition; +++: strong inhibition; for Degree of quorum sensing inhibition (QSI), CV026: key: −: no inhibition; +: low inhibition; ++: medium inhibition; +++: strong inhibition
Experimental: as §3

[10] = system: Streptococcus sobrinus; experiment: Diffusion discs test, Streptococcus sobrinus; assay type: cell-based; design: key: —: no activity; conditions: discs with 40 mM of compound in 20 μl solvent
Experimental: as §4

[11] = system: L428 cells; experiment: in vitro; conditions: for CC50: read-out: LC50, 48 hrs
Experimental: as §1, §2

[12] = system: NF-kB; experiment: NF-kB-luciferase reporter gene assay in L428 cells; assay type: cell-based, human; conditions: Table 6 summary; note: key: +: active; −: inactive
Experimental: FIG. 7 includes a vertical bar graph showing a dose response of NF-kB activation according to an NF-kB reporter gene luciferase assay. L428 cells were stably transfected with the NF-kB luciferase reporter gene. The cells were incubated with the compounds at different concentrations for 2 hours. […] The results represent the percentage of NF-kB activation as compared to vehicle (DMSO) treated cells. All samples were normalized to protein concentration. Mean+SD, Two-way ANOVA and Tukey's multiple comparison test. 95% confidence interval (p-values *≤0.0332, **≤0.0021, ***≤0.0002).
L428 cells stable transfectants with the luciferase NF-kB-Luc reporter gene were generated previously described (Ozer et al., 2009), and were maintained in 500 μg/ml of G418 (G418 disulfate salt, Sigma-Aldrich). The cells (5×10^5 /well in triplicate) were incubated for 2 hrs. in 1 ml of medium containing the solvent (DMSO) or different concentrations of the molecules tested. Cells were then harvested, lysed, and monitored by a luciferase reporter assay kit (Promega) according to the manufacturer's instructions. Measurements were carried out using a luminometer (Promega, GLOMAX™ 20/20 Luminometer). Data were normalized to the protein concentration in each lysate as measured by the Bradford method (BioRad) and normalized to the control. Experiments were repeated at least three times.

[13] = system: quorum sensing (CV026 and KYC55); experiment: Quorum sensing inhibition, overall statement over the bio-reporter bacteria; assay type: cell-based; conditions: for QSI: Table 6 summary; for QSI activity overall, in words: running text
Experimental: as §3
All the synthesized compounds were evaluated for quorum sensing inhibition against two bioreporter bacteria strains, Chromobacterium violaceum (CV026) and Agrobacterium tumefaciens (KYC55) and the results are summarized in Table 1.

[14] = Table 2, piperlongumine derivatives

Row | Compound | CC50 at 48 h ([1]; human, LC50) [µM] | Degree of QSI of KYC55 [2] | QSI activity against KYC55, in words [2] | Bacillus subtilis, diameter of growth inhibition [3] | Streptococcus mutans, diameter of growth inhibition [4] | PA01, diameter of growth inhibition [5] | Antibacterial activity, in words [6] | Staphylococcus aureus, diameter of growth inhibition [7] | Acinetobacter baumannii, diameter of growth inhibition [8] | Degree of QSI of CV026 [9] | QSI activity against CV026, in words [9] | Streptococcus sobrinus, diameter of growth inhibition [10] | Cytotoxic [11] | Antibacterial [6] | Anti-inflammatory [12] | QSI [13] | also measured
1 | O=C(/C=C/C1CCCCC1)N1CCCCC1 [CP-295, (E)-cyclohexyl-1-(piperidin-1-yl)prop-2-en-1-one] | 408 | ++ | moderate activity | — | — | — | showed antibacterial activity | — | — | ++ | moderate activity | 12 mm |  |  |  |  | 
2 | O=C(/C=C/C=C/c1ccc(F)cc1)N1CCCCC1 [CP-154, (2E,4E)-5-(4-fluorophenyl)-1-(piperidin-1-yl)penta-2,4-dien-1-one] | 46.8 | +++ | highly active | 7 mm | — | — | showed antibacterial activity | 11 mm | — | +++ | highly active | 9 mm | + | + | + | + | Cytotoxic activity, in words [11]: cytotoxic; QSI activity overall, in words [13]: anti QS activity
3 | O=C(/C=C/C(=O)N1CCCCC1)c1ccc(F)c(F)c1 [CP-287, (E)-3-(benzoyl 3,4-difluoro)-1-(piperidin-1-yl)prop-2-en-1-one] |  |  |  | — | — | — | showed antibacterial activity | — | — |  |  | 9 mm | + | − | + | + | CC50 ([11]; L428 cells): 284 µM; CC50 ([11]; Table 5, L428 cells): 284 µM
4 | O=C1C=CCCN1C(=O)/C=C/c1cc(O)c(O)c(O)c1 [PL-25, trihydroxy piperlongumine] | 46.3 |  | moderate inhibition | — | — | — | showed antibacterial activity | 9 mm | — |  | inactive | — |  |  |  |  | Degree of quorum sensing inhibition (QSI), KYC55 [2, 14]: ++; Degree of quorum sensing inhibition (QSI), CV026 [9, 14]: −
5 | CSc1ccc(/C=C/C=C/C(=O)N2CCCCC2)cc1 [CP-147, (2E,4E)-5-(4-(methylthio)phenyl)-1-(piperidin-1-yl)penta-2,4-dien-1-one] |  | − | inactivity; also recorded: does not affect QS | — | — | — | showed antibacterial activity | 9 mm | — | + | low activity; also recorded: low QS inhibition effect | — |  |  |  |  | Staphylococcus aureus growth inhibition, in words ([7]; running text): inhibits Staphylococcus aureus growth
6 | CC(=O)Oc1ccc(/C=C/C=C/C(=O)N2CCCCC2)cc1 [CP-158, 4-((1E,3E)-5-oxo-5-(piperidin-1-yl)penta-1,3-dienyl)phenyl acetate] | 285 | ++ |  |  |  |  | did not show antibiotic activity |  |  | +++ | more effective against CV026 than KYC55 |  | + | − | + | + | Cytotoxic activity, in words [11]: not cytotoxic; QSI activity overall, in words [13]: anti QS activity
7 | COc1cc(CCC(=O)CC(=O)CCc2ccc(O)c(OC)c2)ccc1O [HCU, Tetrahydrocurcumin] |  |  |  |  |  |  |  |  |  |  |  |  |  | − | + | + | Cytotoxic activity, in words ([11]; L428 cells): cytotoxic; Cytotoxic ([11]; Table 6 summary): +; CC50 at 48 h [1]: 102 µM; Degree of quorum sensing inhibition (QSI), KYC55 ([2]; Table 3, curcumin derivatives): +++; Degree of quorum sensing inhibition (QSI), CV026 ([9]; Table 3, curcumin derivatives): +
